Molecular target: T1, recombinant human aromatase (CYP19) (Homo sapiens, UniProt P11511)
T1 construct: purchased GENTEST 456260; host or cells: baculovirus/insect cells
T1 sequence (P11511 1-503): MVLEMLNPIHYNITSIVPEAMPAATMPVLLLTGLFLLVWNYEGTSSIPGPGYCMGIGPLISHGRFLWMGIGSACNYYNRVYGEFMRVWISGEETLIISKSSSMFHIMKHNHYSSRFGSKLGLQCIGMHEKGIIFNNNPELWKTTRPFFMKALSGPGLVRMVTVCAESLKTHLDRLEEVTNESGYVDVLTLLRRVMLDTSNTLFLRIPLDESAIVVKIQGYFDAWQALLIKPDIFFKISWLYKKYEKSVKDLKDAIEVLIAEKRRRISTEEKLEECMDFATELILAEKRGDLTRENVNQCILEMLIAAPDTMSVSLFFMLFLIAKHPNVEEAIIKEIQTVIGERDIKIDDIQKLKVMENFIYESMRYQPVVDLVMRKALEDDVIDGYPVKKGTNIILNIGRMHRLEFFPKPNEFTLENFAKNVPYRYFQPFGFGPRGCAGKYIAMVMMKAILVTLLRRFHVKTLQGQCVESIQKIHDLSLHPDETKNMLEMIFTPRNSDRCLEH
Assay: aromatase (CYP19) inhibition assay, fluorometric substrate dibenzylfluorescein (DBF)
Assay type: biochemical
Details: recombinant human aromatase (baculovirus/insect cell expressed), test compounds 2×10^−5 to 10^−9 M, 37° C. for 30 minutes
Procedure: Compounds of the invention were evaluated for inhibiting aromatase enzyme using the following aromatase (CYP19) inhibition assay which detects aromatase inhibitors utilizing recombinant human aromatase (baculovirus/insect cell expressed) and the fluorometric substrate dibenzylfluorescein (DBF). Aromatase will metabolize DBF to fluorescein which will give the fluorescent signal. The assay is conducted in 96-well black, Falcon plate (BD Biosciences, Cat. No. 353241) in the total volume of 100 μL per well. 40 μL of the Cofactor/Dilution buffer (1) is added to the plate followed by 10 μL of serially diluted test compounds in duplicates for final concentration of 2×10^−5 to 10^−9 M, or 10 μL of phosphate buffer for positive and background control wells. After 10 minutes of preincubation at 37° C., the reaction is initiated by adding 50 μL of prewarmed Enzyme/Substrate Mix (2) to the test compound wells, and positive control wells (maximum activity of CYP19, which represents 100%). The plate is incubated at 37° C. for 30 minutes. To stop the reaction, 37.5 μL of 2 N NaOH is added to all wells. For background controls, 50 μL of Enzyme/Substrate Mix (2) are added into background control wells. The plate is left at 37° C. incubator for 2 hours to develop adequate signal to background ratio. Fluorescence per well is measured in the fluorescent plate reader. The metabolite concentration is measured using excitation wavelength of 485 nm and emission wavelength of 538 nm. Inhibition of aromatase by test compounds is expressed in percentage relative to positive controls. IC50 values for the test compounds are derived from non-liner curve fitting. • (1) Cofactor/Dilution buffer: 50 mM phosphate buffer, pH=7.4; 1× NADPH regenerating system A (20× stock, GENTEST, Cat. No. 451220); 1× NAPDH regenerating system B (100× stock, GENTEST, Cat. No. 451200) and 0.2 mg/mL control protein (Insect Cell Control Supersomes, GENTEST, Cat. No. 456200) • (2) Enzyme/Substrate Mix: 50 mM phosphate buffer, pH=7.4, 0.02 nmole/mL human aromatase protein (Human CYP19+P450 Reductase Supersomes, GENTEST, Cat. No. 456260); 0.4 μM dibenzylfluorescein (DBF, GENTEST, Cat. No. 451750, prepared at 2 mM concentration in acetonitrile); 0.5 mg/mL control protein (Insect Cell Control Supersomes, GENTEST, Cat. No. 456200).

aromatase inhibition	Compound
showed aromatase inhibition	COc1ccc(F)cc1C(C)(C)CC(O)(Cc1cc2cnccc2[nH]1)C(C)C (stereo not drawn) [5-(5-Fluoro-2-methoxyphenyl)-2,5-dimethyl-3-(1H-pyrrolo[3,2-c]pyridin-2-ylmethyl)hexan-3-ol]
showed aromatase inhibition	Cc1ccc(F)cc1C(C)(C)CC(O)(Cc1cc2ccncc2[nH]1)C(C)C (stereo not drawn) [5-(5-Fluoro-2-methylphenyl)-2,5-dimethyl-3-(1H-pyrrolo[2,3-c]pyridin-2-ylmethyl)hexan-3-ol]
showed aromatase inhibition	CC(C)(CC(O)(Cc1cc2cnccc2[nH]1)C(F)(F)F)c1ccc(F)cc1O (stereo not drawn) [5-Fluoro-2-[4,4,4-trifluoro-3-hydroxy-1,1-dimethyl-3-(1H-pyrrolo[3,2-c]pyridin-2-ylmethyl)butyl]phenol]

Source: patent publication US20060030608A1, “Anti aromatase compounds pharmaceutical compositions and uses thereof” (Boehringer Ingelheim Pharmaceuticals, Inc., priority 2004, published 2006)
